Assay [1] concerns E. coli transcribing antisense RNA to rplL and rplJ (AS-rplL/J). Kind of assay: microbe, parasite or virus in culture. Type of assay: cell-based. The note with it: for Fold Increase in Sensitivity: IC50 without IPTG versus IC50 with 400 μM IPTG; for Sensitivity Increased?: statistically significant decrease in the IC50 value in the presence of inducer (IPTG). On the procedure: The effectiveness of the above assays was validated using proliferation-required genes from E. coli which were identified using procedures similar to those described above. Antibiotics of various chemical classes and modes of action were purchased from Sigma Chemicals (St. Louis, Mo.). Stock solutions were prepared by dissolving each antibiotic in an appropriate aqueous solution based on information provided by the manufacturer. The final working solution of each antibiotic contained no more than 0.2% (w/v) of any organic solvent. To determine their potency against a bacterial strain engineered for transcription of an antisense comprising a nucleotide sequence complementary to a proliferation-required 50S ribosomal protein, each antibiotic was serially diluted two- or three-fold in growth medium supplemented with the appropriate antibiotic for maintenance of the antisense construct. At least ten dilutions were prepared for each antibiotic. 25 μL aliquots of each dilution were transferred to discrete wells of a 384-well microplate (the assay plate) using a multi-channel pipette. Quadruplicate wells were used for each dilution of an antibiotic under each treatment condition (plus and minus inducer). Each assay plate contained twenty wells for cell growth controls (growth medium replacing antibiotic), ten wells for each treatment (plus and minus inducer, in this example IPTG). Assay plates were usually divided into the two treatments: half the plate containing induced cells and an appropriate concentrations of inducer (in this example IPTG) to maintain the state of induction, the other half containing non-induced cells in the absence of IPTG.
Cells for the assay were prepared as follows. Bacterial cells containing a construct, from which transcription of antisense nucleic acid comprising a nucleotide sequence complementary to rplL and rplJ (AS-rplL/J), which encode proliferation-required 50S ribosomal subunit proteins, is inducible in the presence of IPTG, were grown into exponential growth (OD600 0.2 to 0.3) and then diluted 1:100 into fresh medium containing either 400 μM or 0 μM inducer (IPTG). These cultures were incubated at 37° C. for 2.5 hr. After a 2.5 hr incubation, induced and non-induced cells were respectively diluted into an assay medium at a final OD600 value of 0.0004. The medium contained an appropriate concentration of the antibiotic for the maintenance of the antisense construct. In addition, the medium used to dilute induced cells was supplemented with 800 μM IPTG so that addition to the assay plate would result in a final IPTG concentration of 400 μM. Induced and non-induced cell suspensions were dispensed (25 μl/well) into the appropriate wells of the assay plate as discussed previously. The plate was then loaded into a plate reader, incubated at constant temperature, and cell growth was monitored in each well by the measurement of light scattering at 595 nm. Growth was monitored every 5 minutes until the cell culture attained a stationary growth phase. For each concentration of antibiotic, a percentage inhibition of growth was calculated at the time point corresponding to mid-exponential growth for the associated control wells (no antibiotic, plus or minus IPTG). For each antibiotic and condition (plus or minus IPTG), a plot of percent inhibition versus log of antibiotic concentration was generated and the IC50 determined.

Assay [2] deals with E. coli transcribing IPTG-inducible antisense clones. Kind of assay: Cell-based assay: antibiotic sensitivity of E. coli transcribing antisense to ribosomal protein genes or to genes not involved in protein synthesis (FIGS. 8, 9). The arrangement: species or system Escherichia coli. The source says:
The effectiveness of the above cell-based assay was validated using constructs transcribing antisense RNA to the proliferation required Escherichia coli genes rplL, rplJ, and rplW encoding ribosomal proteins L7/L12, L10 and L23 respectively. These proteins are essential components of the protein synthesis apparatus of the cell and as such are required for proliferation. These constructs were used to test the effect of antisense transcription on cell sensitivity to antibiotics known to bind to the ribosome and thereby inhibit protein synthesis. Constructs transcribing antisense RNA to several other genes (elaD, visC, yohH, and atpE/B), the products of which are not involved in protein synthesis were used for comparison. […]
The cell populations containing vectors producing AS-elaD or AS-rplW were exposed to a range of IPTG concentrations in liquid medium to obtain the growth inhibitory dose curve for each clone (FIG. 7). First, seed cultures were grown to a particular turbidity measured by the optical density (OD) of the growth solution. […] The cells were grown for up to 15 hours and the extent of growth was determined by measuring the optical density of the cultures at 600 nm. […]

Here are results for 2 compounds from patent US20050026189A1, “Microbial operons” (priority 2003, published 2005).

SMILES strings stand for the structures.

Turning to `CC[C@H]1OC(=O)[C@H](C)[C@@H](O[C@H]2C[C@@](C)(OC)[C@@H](O)[C@H](C)O2)[C@H](C)[C@@H](O[C@@H]2O[C@H](C)C[C@H](N(C)C)[C@H]2O)[C@](C)(O)C[C@@H](C)C(=O)[C@H](C)[C@@H](O)[C@]1(C)O` [Erythromycin], in assay [1], the “Fold Increase in Sensitivity” value stood at 40 Fold and the “Sensitivity Increased?” value is “Yes”. For the same compound, the sensitivity to erythromycin result in assay [2] (initial experiments, clones transcribing antisense to protein synthesis genes (L7/L12 & L10, L7/L12 alone, L22, L18, rRNA, Elongation Factor G)) is “increased sensitivity”.
In the case of `CCn1cc(C(=O)O)c(=O)c2ccc(C)nc21` [Nalidixic acid], in assay [1], the “Fold Increase in Sensitivity” value amounted to 1 Fold and the “Sensitivity Increased?” value is given as “No”. Besides, the “sensitivity to antibiotics which do not inhibit protein synthesis” value in assay [2] (clone transcribing antisense to rplL and rplJ (AS-rplL/J)) is “does not show increased sensitivity”.
